Assay results published in US10947216B2, “Amide compounds and method for making and using” (Rigel Pharmaceuticals, Inc., priority 2016, dated 2021).
Structures can show the parent of a compound that is named as a salt.

Key:
IL-23 (p19/p40) = experiment: IL23-p19 ELISA, dendritic cells (DC differentiated from human PBMC, IFNγ primed), LPS stimulated; format: cell-based; conditions: Dendritic cell, human PBMC-derived dendritic cells, 1 h compound pre-incubation, LPS 1 μg/ml 18 hours, 10 pt
Description: Compound Screening Using DC Cells
I. Differentiation of PBMC's to DC Cells:
After 2 hours, the media including floating cells was aspirated out carefully and 12 ml of fresh RPMI media (10% FBS) containing GMCSF (100 ng/ml) and IL4 (20 ng/ml) was added, and the flask was kept in a 37° C. incubator for 7 days.
After 3 days, fresh GMCSF (100 ng/ml) and IL4 (20 ng/ml) were added to the flask and the incubation continued. After 7 days, the fully differentiated cells were harvested by spinning down (1200 rpm/5 min) and aspirating the media. The cells were suspended in fresh RPMI media (10% FBS) containing 50 ng/ml IFNγ (1000 U/ml) and then plated (50K/well in 100 μl) onto a white clear bottom 96 well plate and left in a 37° C. incubator for 24 hours.
II. Addition of Compounds:
After 24 hours incubation, 100 μl of RPMI media was added containing 2× concentrated test compound per well to the above cell-culture media (final concentration becomes 1×) and the plates were pre-incubated for 1 hour at 37° C. before stimulating with LPS.
The mixture was shaken and incubated the plates at 37° C. for an additional 18 hours.
155 μl of the supernatant was harvested from each well carefully (without the tip touching the bottom of the well) and to the remaining 50 μl/well of the cell culture plate was added 50 μl of Cell Titer Glo reagent. The mixture was incubated for 1-2 minutes on a shaker and the plate was read for luminescence intensity to determine the compound cytotoxicity. The cell culture supernatant collected above was used to carry out IL23 ELISA (65 μl—Supernatant) and IL10 ELISA (90 μl—Supernatant) as described below.
Human IL-23 (p19/p40) ELISA Protocol (e-Biosciences)
To 10.5 ml PBS add 50 μl of anti-IL23 (p19) was added capture antibody (2.5 μg/ml). The mixture was mixed well and 100 μl of the coating solution was added to each well of the 96 well white plates from Pierce. The wells were covered and incubated overnight at 4° C.
The anti-IL23 (p19)-antibody-coated plates were washed 2× using TBST (use plate washer) and blocked using 200 μl of 0.5% Casein for 1.5-2 hours at room temperature with shaking.
Addition of Supernatant and Detection:
The plates were washed 2× using TBST and the supernatant was transferred (65 μl/well) to the above pre-blocked/IL23(p19)-antibody-coated 96 well plate, and incubated at room temperature for 1.5 hours with shaking.
The plates were washed 4× using TBST (plate washer) and 100 μl/well detection antibody solution prepared from 2 μl of biotin labeled anti-IL-12 (p40/p70) antibody in 11 ml 1% BSA/PBS solution (1-5000 dilution) was added. The plates were incubated for 1 hour with shaking at Room temperature.
Again, the plates were washed 4× with TBST and 100 μl of HRP labeled Streptavidin (R&D Systems) solution (10 μl/10 ml 1% BSA solution) was added, and the plates were incubated at room temperature for another 45 minutes with shaking.
After 45 minutes, the plates were washed with TBST 4× and 100 μl/well Super Signal ELISA Pico Chemiluminescent Substrate from Pierce (3.5 ml A+3.5 ml B+3.5 ml MQ water) was added. The plates were shaken for 1-2 minutes then read on a plate reader.

IL-23p19 = experiment: LPS Induced IL23p19 in THP-1 Cells (with IFNγ Primed) Assay; format: cell-based, human; conditions: Homo sapiens, THP-1, THP-1 cells, IFNγ (50 ng/mL) primed, 1 hour compound pre-incubation, LPS 1 ug/mL 18 hours, 10 pt; read-out: IL23-p19 ELISA, THP1-IFNy, LPS, 10 pt EC50
Description: LPS Induced IL23p19 in THP-1 Cells (with IFNγ Primed) Assay
Method THP-1 Cells Stimulation:
On day 1, 50K/well THP-1 cells were seeded and primed with IFNγ (50 ng/mL) in 384-well plates for about 18 hours in RPMI media with 10% FBS. […] 50 μL/well 2× compound was added to 50 μL/well THP-1 cells (with IFNγ primed) in duplicate in 384 well tissue culture plates. […] Day 3, after stimulation for 18 hours at 37° C., 5% CO2, the assay plate was centrifuged and 70 μL/well supernatant was harvested. IL-23p19 protein in 70 μL/well of supernatant was measured by sandwich ELISA, and 25 μl/well Cell Titer Glo reagent was added to the remaining cells to measure compound toxicity.
Human IL-23p19 Sandwich ELISA:
Maxisorp immuno ELISA plates were pre-coated with 25 μL/well of anti-IL-23p19 capture antibody (2.5 ug/mL) in PBS overnight at room temperature. After washing with 1×PBST, the plates were blocked using 100 μL/well of 1% BSA in PBS for 2 hours at room temperature. The plates were washed three times with 1×PBST and 70 μL/well supernatant were added. The plates were incubated at room temperature for 2 hours with shaking and washed three times with 1×PBST. 25 μL/well of biotin labeled anti-IL-12(p40/p70) detection antibody (100 ng/mL) in PBS with 1% BSA was added and the plates were incubated at room temperature for 2 hours with shaking. After washing three times with 1×PBST, 25 μL/well of streptavidin-HRP (1:200) in PBS with 1% BSA was added and the plates were incubated at room temperature for 20 minutes with shaking. The plates were washed three times with 1×PBST and 25 μL/well of Super Signal ELISA Pico Chemiluminescent Substrate were added. The plates were read with a luminometer, and the chemiluminescence values were entered into Athena (Rigel) for curve fitting, EC50 calculation, and database storage.

| Compound | EC50 (IL-23 (p19/p40)) [µM] | EC50 (IL-23p19) [µM] |
| --- | --- | --- |
| Cn1cc(NC(=O)c2cccc(-c3cn[nH]c3)n2)c(-c2ccc(N3CCOCC3)cn2)n1 [Compound I-171, N-(1-methyl-3-(5-morpholinopyridin-2-yl)-1H-pyrazol-4-yl)-6-(1H-pyrazol-4-yl)picolinamide] | 2.38 | – |
| Cn1cc(NC(=O)c2cccc(-c3cc[nH]n3)n2)c(-c2ccc(N3CCOCC3)cn2)n1 [Compound I-172, N-(1-methyl-3-(5-morpholinopyridin-2-yl)-1H-pyrazol-4-yl)-6-(1H-pyrazol-3-yl)picolinamide] | 0.0468 | – |
| COCCNc1cncc(-c2cccc(C(=O)Nc3cn(C)nc3-c3ccccn3)n2)c1 [Compound I-31, 5′-((2-methoxyethyl)amino)-N-(1-methyl-3-(pyridin-2-yl)-1H-pyrazol-4-yl)-[2,3′-bipyridine]-6-carboxamide] | 0.413 | – |
| Cn1cc(NC(=O)c2cccc(-c3ccccc3)n2)c(-c2ccccn2)n1 [Compound I-48, N-(1-methyl-3-(pyridin-2-yl)-1H-pyrazol-4-yl)-6-phenylpicolinamide] | 9.16 | – |
| CC(C)Oc1cncc(-c2cccc(C(=O)Nc3cn(C4COC4)nc3-c3ccccn3)n2)c1 [Compound I-130, 5′-isopropoxy-N-(1-(oxetan-3-yl)-3-(pyridin-2-yl)-1H-pyrazol-4-yl)-[2,3′-bipyridine]-6-carboxamide] | 1.65 | – |
| O=C(Nc1cn(C2CCOCC2)nc1-c1ccccn1)c1cccc(-c2ccncc2)n1 [Compound I-167, N-(3-(pyridin-2-yl)-1-(tetrahydro-2H-pyran-4-yl)-1H-pyrazol-4-yl)-[2,4′-bipyridine]-6-carboxamide] | 6.5 | – |
| Cn1cc(NC(=O)c2cccc(-c3cncc(S(C)(=O)=O)c3)n2)c(-c2ccccn2)n1 [Compound I-39, N-(1-methyl-3-(pyridin-2-yl)-1H-pyrazol-4-yl)-5′-(methylsulfonyl)-[2,3′-bipyridine]-6-carboxamide] | – | 1.39 |
| Cn1cc(NC(=O)c2cccc(C3CCNCC3)n2)c(-c2ccccn2)n1 [Compound I-63, N-(1-methyl-3-(pyridin-2-yl)-1H-pyrazol-4-yl)-6-(piperidin-4-yl)picolinamide] | – | 26.6 |
| Cc1cncc(-c2cccc(C(=O)Nc3cn(CCN4CCOCC4)nc3-c3ccccn3)n2)c1 [Compound I-84, 5′-methyl-N-(1-(2-morpholinoethyl)-3-(pyridin-2-yl)-1H-pyrazol-4-yl)-[2,3′-bipyridine]-6-carboxamide] | – | 0.444 |
| COc1ccc(-c2nn(C)cc2NC(=O)c2cccc(-c3cncc(OC(C)C)c3)n2)nc1 [Compound I-70, 5′-isopropoxy-N-(3-(5-methoxypyridin-2-yl)-1-methyl-1H-pyrazol-4-yl)-[2,3′-bipyridine]-6-carboxamide] | – | 2.21 |
| COc1cc(-c2cccc(C(=O)Nc3cn(C)nc3-c3ccccn3)n2)ccn1 [Compound I-21, 2′-methoxy-N-(1-methyl-3-(pyridin-2-yl)-1H-pyrazol-4-yl)-[2,4′-bipyridine]-6-carboxamide] | – | 398 |
| CCN(CC)CCn1cc(NC(=O)c2cccc(-c3ccncc3)n2)c(-c2ccccn2)n1 [Compound I-104, N-(1-(2-(diethylamino)ethyl)-3-(pyridin-2-yl)-1H-pyrazol-4-yl)-[2,4′-bipyridine]-6-carboxamide] | – | 74.1 |
| Cc1cncc(-c2cccc(C(=O)Nc3cn(C(CO)CO)nc3-c3ccccn3)n2)c1 [Compound I-126, N-(1-(1,3-dihydroxypropan-2-yl)-3-(pyridin-2-yl)-1H-pyrazol-4-yl)-5′-methyl-[2,3′-bipyridine]-6-carboxamide] | – | 3.35 |
| Cc1ccc(-c2cccc(C(=O)Nc3cn(C)nc3-c3ccccn3)n2)cc1 [Compound I-50, N-(1-methyl-3-(pyridin-2-yl)-1H-pyrazol-4-yl)-6-(p-tolyl)picolinamide] | – | 5.44 |
| O=C(Nc1c[nH]nc1-c1ccccn1)c1cccc(-c2ccncc2)n1 [Compound I-106, N-(3-(pyridin-2-yl)-1H-pyrazol-4-yl)-[2,4′-bipyridine]-6-carboxamide formate] | – | 4.94 |
| O=C(Nc1cn(C(CO)CO)nc1-c1ccccn1)c1cccc(-c2cccnc2)n1 [Compound I-125, N-(1-(1,3-dihydroxypropan-2-yl)-3-(pyridin-2-yl)-1H-pyrazol-4-yl)-[2,3′-bipyridine]-6-carboxamide] | – | 3.92 |
| Cn1cc(NC(=O)c2cccc(-c3ccc4cc[nH]c4c3)n2)c(-c2ccccn2)n1 [Compound I-47, 6-(1H-indol-6-yl)-N-(1-methyl-3-(pyridin-2-yl)-1H-pyrazol-4-yl)picolinamide] | – | 3.6 |
| Cn1cc(NC(=O)c2cccc(-c3cnc4cc[nH]c4c3)n2)c(-c2ccccn2)n1 [Compound I-45, N-(1-methyl-3-(pyridin-2-yl)-1H-pyrazol-4-yl)-6-(1H-pyrrolo[3,2-b]pyridin-6-yl)picolinamide] | – | 3.46 |
| O=C(Nc1cn(C2CCOCC2)nc1-c1ccccn1)c1cccc(-c2cn[nH]c2)n1 [Compound I-165, 6-(1H-pyrazol-4-yl)-N-(3-(pyridin-2-yl)-1-(tetrahydro-2H-pyran-4-yl)-1H-pyrazol-4-yl)picolinamide] | – | 1.53 |
| Cn1cc(NC(=O)c2cccc(-c3cccc(NS(C)(=O)=O)c3)n2)c(-c2ccccn2)n1 [Compound I-60, N-(1-methyl-3-(pyridin-2-yl)-1H-pyrazol-4-yl)-6-(3-(methylsulfonamido)phenyl)picolinamide] | – | 14.8 |
| Cn1cc(NC(=O)c2cccc(C3=CCCN(C(=O)OC(C)(C)C)C3)n2)c(-c2ccccn2)n1 [Compound I-64, tert-butyl 6-((1-methyl-3-(pyridin-2-yl)-1H-pyrazol-4-yl)carbamoyl)-5′,6′-dihydro-[2,3′-bipyridine]-1′(2′H)-carboxylate] | – | 13.3 |
| COc1cccc(-c2cccc(C(=O)Nc3cn(C)nc3-c3ccccn3)n2)c1 [Compound I-51, 6-(3-methoxyphenyl)-N-(1-methyl-3-(pyridin-2-yl)-1H-pyrazol-4-yl)picolinamide] | – | 59.1 |
| Cn1cc(NC(=O)c2cccc(-c3ccnc(C#N)c3)n2)c(-c2ccccn2)n1 [Compound I-42, 2′-cyano-N-(1-methyl-3-(pyridin-2-yl)-1H-pyrazol-4-yl)-[2,4′-bipyridine]-6-carboxamide] | – | 25.5 |
| CNc1cccc(-c2cccc(C(=O)Nc3cn(C)nc3-c3ccccn3)n2)c1 [Compound I-58, N-(1-methyl-3-(pyridin-2-yl)-1H-pyrazol-4-yl)-6-(3-(methylamino)phenyl)picolinamide] | – | 15.2 |
